According to patent publication US20120220562A1, “Anti-Viral Compounds” (ABBOTT LABAORATORIES, priority 2011, published 2012):

Test system: HCV 1b-Con1 replicon
Assay: HCV 1b-Con1 replicon assay in the presence of 5% FBS
Format: cell-based
Settings: Hepatitis C virus

COC(=O)N[C@H](C(=O)N1[C@H](c2nc3cc([C@H]4CC[C@H](c5ccc6[nH]c([C@@H]7CCC(C)(C)N7C(=O)[C@@H](NC(=O)OC)C(C)C)nc6c5)N4c4ccc(C(C)(C)C)cc4)ccc3[nH]2)CCC1(C)C)C(C)C [Example 3.11, methyl {(2S)-1-[(5.5)-5-{5-[(2R,5R)-1-(4-tert-butylphenyl)-5-{2-[(2S)-1-{(2S)-2-[(methoxycarbonyl)amino]-3-methylbutanoyl}-5,5-dimethylpyrrolidin-2-yl]-1H-benzimidazol-5-yl}pyrrolidin-2-yl]-1H-benzimidazol-2-yl}-2,2-dimethylpyrrolidin-1-yl]-3-methyl-1-oxobutan-2-yl}carbamate]
EC50: < 0.1 nM

COC(=O)N[C@H](C(=O)N1CCC[C@H]1c1nc2cc(F)c([C@H]3CC[C@H](c4cc5[nH]c([C@@H]6CCCN6C(=O)[C@@H](NC(=O)OC)C6CCOCC6)nc5cc4F)N3c3cc(F)c(N4CCN(c5ccc(C(F)(F)F)cc5)CC4)c(F)c3)cc2[nH]1)C1CCOCC1 [Example 4.46, dimethyl ([(2R,5R)-1-(3,5-difluoro-4-{4-[4-(trifluoromethyl)phenyl]piperazin-1-yl}phenyl)pyrrolidine-2,5-diyl]bis{(5-fluoro-1H-benzimidazole-6,2-diyl)(2S)pyrrolidine-2,1-diyl[(1S)-2-oxo-1-(tetrahydro-2H-pyran-4-yl)ethane-2,1-diyl]})biscarbamate]
EC50: < 0.1 nM

COCCOc1ccc(N2[C@@H](c3ccc4[nH]c([C@@H]5CCCN5C(=O)[C@@H](NC(=O)OC)C(C)C)nc4c3)CC[C@@H]2c2ccc3[nH]c([C@@H]4CCCN4C(=O)[C@@H](NC(=O)OC)C(C)C)nc3c2)cc1 [Example 3.3, methyl {(2S)-1-[(2S)-2-(5-{(2R,5R)-5-{2-[(2S)-1-{(2S)-2-[(methoxycarbonyl)amino]-3-methylbutanoyl}pyrrolidin-2-yl]-1H-benzimidazol-5-yl}-1-[4-(2-methoxyethoxy)phenyl]pyrrolidin-2-yl}-1H-benzimidazol-2-yl)pyrrolidin-1-yl]-3-methyl-1-oxobutan-2-yl}carbamate]
EC50: 0.1 to 1 nM

COC(=O)N[C@H](C(=O)N1CCC[C@H]1c1nc2cc([C@H]3CC[C@H](c4ccc5[nH]c([C@@H]6CCCN6C(=O)[C@@H](NC(=O)OC)C(C)C)nc5c4)N3c3cc(F)c(N4CCCCC4)c(F)c3F)ccc2[nH]1)C(C)C [Example 4.7, methyl {(2S)-1-[(2S)-2-(5-{(2R,5R)-5-{2-[(2S)-1-{(2S)-2-[(methoxycarbonyl)amino]-3-methylbutanoyl}pyrrolidin-2-yl]-1H-benzimidazol-5-yl}-1-[2,3,5-trifluoro-4-(piperidin-1-yl)phenyl]pyrrolidin-2-yl}-1H-benzimidazol-2-yl)pyrrolidin-1-yl]-3-methyl-1-oxobutan-2-yl}carbamate]
EC50: < 0.1 nM

COC(=O)N[C@H](C(=O)N1CCC[C@H]1c1nc2cc([C@H]3CC[C@H](c4ccc5[nH]c([C@@H]6CCCN6C(=O)[C@@H](NC(=O)OC)C(C)C)nc5c4)N3c3cc(F)c(N4CCN(c5ccccc5)CC4)c(F)c3)ccc2[nH]1)C(C)C [Example 4.58, methyl {(2S)-1-[(2S)-2-{5-[(2R,5R)-1-[3,5-difluoro-4-(4-phenylpiperazin-1-yl)phenyl]-5-{2-[(2S)-1-{(2S)-2-[(methoxycarbonyl)amino]-3-methylbutanoyl}pyrrolidin-2-yl]-1H-benzimidazol-5-yl}pyrrolidin-2-yl]-1H-benzimidazol-2-yl}pyrrolidin-1-yl]-3-methyl-1-oxobutan-2-yl}carbamate]
EC50: < 0.1 nM

COC(=O)N[C@H](C(=O)N1CCC[C@H]1c1nc2cc([C@H]3CC[C@H](c4ccc5[nH]c([C@@H]6CCCN6C(=O)[C@@H](NC(=O)OC)C(C)C)nc5c4)N3c3ccc(OCc4ccccc4)cc3)ccc2[nH]1)C(C)C [Example 4.41, methyl {(2S)-1-[(2S)-2-{5-[(2R,5R)-1-[4-(benzyloxy)phenyl]-5-{2-[(2S)-1-{(2S)-2-[(methoxycarbonyl)amino]-3-methylbutanoyl}pyrrolidin-2-yl]-1H-benzimidazol-5-yl}pyrrolidin-2-yl]-1H-benzimidazol-2-yl}pyrrolidin-1-yl]-3-methyl-1-oxobutan-2-yl}carbamate]
EC50: < 0.1 nM

COC(=O)N[C@H](C(=O)N1CCC[C@H]1c1nc2cc([C@@H]3CC[C@@H](c4cc5nc([C@@H]6CCCN6C(=O)[C@@H](NC(=O)OC)[C@@H](C)OC)[nH]c5cc4F)N3c3cc(F)c(N4CCN(c5c(F)cccc5F)CC4)c(F)c3)c(F)cc2[nH]1)[C@@H](C)OC [Example 3.49, methyl {(2S,3R)-1-[(2S)-2-{5-[(2S,5S)-1-{4-[4-(2,6-difluorophenyl)piperazin-1-yl]-3,5-difluorophenyl}-5-(6-fluoro-2-{(2S)-1-[N-(methoxycarbonyl)-O-methyl-L-threonyl]pyrrolidin-2-yl}-1H-benzimidazol-5-yl)pyrrolidin-2-yl]-6-fluoro-1H-benzimidazol-2-yl}pyrrolidin-1-yl]-3-methoxy-1-oxobutan-2-yl}carbamate]
EC50: < 0.1 nM

COC(=O)N[C@H](C(=O)N1CCC[C@H]1c1nc2cc([C@H]3CC[C@H](c4cc5nc([C@@H]6CCCN6C(=O)[C@@H](NC(=O)OC)[C@@H](C)OC)[nH]c5cc4F)N3c3cc(F)c(N4CCC(c5ccc(F)cc5)CC4)c(F)c3)c(F)cc2[nH]1)[C@@H](C)OC [Example 3.52, methyl {(2S,3R)-1-[(2S)-2-{5-[(2R,5R)-1-{3,5-difluoro-4-[4-(4-fluorophenyl)piperidin-1-yl]phenyl}-5-(6-fluoro-2-{(2S)-1-[N-(methoxycarbonyl)-O-methyl-L-threonyl]pyrrolidin-2-yl}-1H-benzimidazol-5-yl)pyrrolidin-2-yl]-6-fluoro-1H-benzimidazol-2-yl}pyrrolidin-1-yl]-3-methoxy-1-oxobutan-2-yl}carbamate]
EC50: < 0.1 nM

COC(=O)N[C@H](C(=O)N1CCC[C@H]1c1nc2cc([C@H]3CC[C@H](c4ccc5[nH]c(C6CCCC6)nc5c4)N3c3cc(F)c(N4CCC(c5ccccc5)CC4)c(F)c3)ccc2[nH]1)C(C)C [Example 11.2, methyl {(2S)-1-[(2S)-2-(5-{(2R,5R)-5-(2-cyclopentyl-1H-benzimidazol-5-yl)-1-[3,5-difluoro-4-(4-phenylpiperidin-1-yl)phenyl]pyrrolidin-2-yl}-1H-benzimidazol-2-yl)pyrrolidin-1-yl]-3-methyl-1-oxobutan-2-yl}carbamate]
EC50: < 0.1 nM

COC(=O)N[C@H](C(=O)N1CCC[C@H]1c1nc2cc([C@H]3CC[C@H](c4ccc5nc([C@@H]6CCCN6C(=O)[C@@H](NC(=O)OC)C(C)C)[nH]c5c4)N3c3ccc(F)c(F)c3)ccc2[nH]1)C(C)C [Example 4.9, methyl {(2S)-1-[(2S)-2-{5-[(2R,5R)-1-(3,4-difluorophenyl)-5-{2-[(2S)-1-{(2S)-2-[(methoxycarbonyl)amino]-3-methylbutanoyl}pyrrolidin-2-yl]-1H-benzimidazol-6-yl}pyrrolidin-2-yl]-1H-benzimidazol-2-yl}pyrrolidin-1-yl]-3-methyl-1-oxobutan-2-yl}carbamate]
EC50: < 0.1 nM

COC(=O)N[C@H](C(=O)N1[C@H](c2nc3cc([C@H]4CC[C@H](c5cc6nc([C@@H]7C[C@@H]8CCC[C@@H]8N7C(=O)[C@@H](NC(=O)OC)C7CCOCC7)[nH]c6cc5F)N4c4cc(F)c(N5CCCCC5)c(F)c4)c(F)cc3[nH]2)C[C@@H]2CCC[C@@H]21)C1CCOCC1 [Example 3.41, dimethyl ({(2R,5R)-1-[3,5-difluoro-4-(piperidin-1-yl)phenyl]pyrrolidine-2,5-diyl}bis{(6-fluoro-1H-benzimidazole-5,2-diyl)(2S,3aS,6aS)hexahydrocyclopenta[b]pyrrole-2,1(2H)-diyl[(1S)-2-oxo-1-(tetrahydro-2H-pyran-4-yl)ethane-2,1-diyl]})biscarbamate]
EC50: < 0.1 nM

COC(=O)N[C@H](C(=O)N1CCC[C@H]1c1nc2ccc([C@H]3CC[C@H](c4ccc5nc([C@@H]6CCCN6C(=O)[C@@H](NC(=O)OC)C(C)C)[nH]c5c4)N3c3ccc(N(C(C)=O)C(C)(C)C)c(F)c3)cc2[nH]1)C(C)C [Example 2.8, methyl {(2S)-1-[(2S)-2-{6-[(2R,5R)-1-{4-[acetyl(tert-butyl)amino]-3-fluorophenyl}-5-{2-[(2S)-1-{(2S)-2-[(methoxycarbonyl)amino]-3-methylbutanoyl}pyrrolidin-2-yl]-1H-benzimidazol-6-yl}pyrrolidin-2-yl]-1H-benzimidazol-2-yl}pyrrolidin-1-yl]-3-methyl-1-oxobutan-2-yl}carbamate]
EC50: 0.1 to 1 nM

COC(=O)N[C@H](C(=O)N1CCC[C@H]1c1nc2cc([C@H]3CC[C@H](c4ccc5[nH]c([C@@H]6CCCN6C(=O)[C@@H](NC(=O)OC)C(C)C)nc5c4)N3c3cc(F)c(N4CCC5(CC4)OCCO5)c(F)c3)ccc2[nH]1)C(C)C [Example 5.14]
EC50: < 0.1 nM

COC(=O)N[C@H](C(=O)N1CCC[C@H]1c1nc2cc([C@H]3CC[C@H](c4cc5nc([C@@H]6CCCN6C(=O)[C@@H](NC(=O)OC)C6CCOCC6)[nH]c5cc4F)N3c3cc(F)c(N4CCC(c5ccc(F)cc5)CC4)c(F)c3)c(F)cc2[nH]1)C1CCOCC1 [Example 3.53, dimethyl ([(2R,5R)-1-{3,5-difluoro-4-[4-(4-fluorophenyl)piperidin-1-yl]phenyl}pyrrolidine-2,5-diyl]bis{(6-fluoro-1H-benzimidazole-5,2-diyl)(2S)pyrrolidine-2,1-diyl[(1S)-2-oxo-1-(tetrahydro-2H-pyran-4-yl)ethane-2,1-diyl]})biscarbamate]
EC50: < 0.1 nM

COC(=O)N[C@H](C(=O)N1CCC[C@H]1c1nc2cc([C@H]3CC[C@H](c4ccc5[nH]c([C@@H]6CCCN6C(=O)[C@@H](NC(=O)OC)C6Cc7ccccc7C6)nc5c4)N3c3cc(F)c(N4CCC(c5ccccc5)CC4)c(F)c3)ccc2[nH]1)C1Cc2ccccc2C1 [Example 3.27, dimethyl ({(2R,5R)-1-[3,5-difluoro-4-(4-phenylpiperidin-1-yl)phenyl]pyrrolidine-2,5-diyl}bis{1H-benzimidazole-5,2-diyl(2S)pyrrolidine-2,1-diyl[(1S)-1-(2,3-dihydro-1H-inden-2-yl)-2-oxoethane-2,1-diyl]})biscarbamate]
EC50: < 0.1 nM
